The target of one data set is T1, aminopeptidase B (Rattus norvegicus, UniProt O09175).
T1 construct: aminopeptidase B solution which is prepared by Sephadex 100 chromatography as described by Hopusu et al; from tissue
T1 sequence (O09175 1-650): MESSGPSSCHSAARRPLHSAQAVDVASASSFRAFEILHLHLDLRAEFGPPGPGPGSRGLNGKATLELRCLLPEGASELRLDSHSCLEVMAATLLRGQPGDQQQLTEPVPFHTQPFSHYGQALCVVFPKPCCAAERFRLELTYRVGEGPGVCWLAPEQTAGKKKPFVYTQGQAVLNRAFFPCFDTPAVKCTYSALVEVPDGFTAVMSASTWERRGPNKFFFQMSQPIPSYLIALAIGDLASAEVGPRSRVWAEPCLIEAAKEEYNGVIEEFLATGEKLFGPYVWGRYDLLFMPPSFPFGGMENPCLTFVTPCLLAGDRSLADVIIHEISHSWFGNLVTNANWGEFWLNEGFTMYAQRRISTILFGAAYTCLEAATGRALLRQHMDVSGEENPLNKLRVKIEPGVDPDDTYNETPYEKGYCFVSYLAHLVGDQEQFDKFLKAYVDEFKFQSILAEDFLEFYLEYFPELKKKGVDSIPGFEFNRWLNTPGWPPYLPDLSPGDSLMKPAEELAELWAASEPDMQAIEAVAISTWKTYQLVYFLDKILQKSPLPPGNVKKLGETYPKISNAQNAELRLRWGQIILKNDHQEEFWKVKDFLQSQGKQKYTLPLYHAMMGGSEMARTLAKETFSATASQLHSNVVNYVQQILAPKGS
The experiment in a line: Inhibitory activity against aminopeptidase B. Format: biochemical. As to the method: (A) Inhibitory activity against aminopeptidase B Testing method: The method described by […] in Archives of Biochemistry and Biophysics 114, 557, (1966) was modfied. To the mixture of 0.3 ml. of 1 mM arginine β-naphthylamide and 1.0 Ml. of 0.1 M Tris hydrochloride buffer (pH 7.0), 0.7 Ml. of distilled water with or without a test material is added and warmed at 37° C. for 3 minutes. The reaction is started by addition of 0.2 ml. of aminopeptidase B solution which is prepared by Sephadex 100 chromatography as described by Hopusu et al. […] Fifteen minutes at room temperature thereafter, absorbance (a) at 530 nm is measured by spectrophotometer. […] The inhibition percent is calculated as follows: (b-a)/b×100.

The subject of data set [1] is plaque forming cells in the spleen. Description: Effect on humoral antibody formation to Sheep Red Blood Cell (SRBC) in mice (JERNE's hemolytic plaque technique). It is filed as in vivo, Mice (dd/y female). The settings on record: for Antibody Forming Cells Number / Antibody Forming Cells Treated Group / Non-treated Group: intraperitoneal, four days. As to the method: The compound of Example 28 was also tested for its humoral antibody formation to find its efficacy as an immunizing cancer inhibitor. […] For the humoral antibody formation of Bestatin per se see J. Antibiotics, 29(8), 857-859 (August, 1976).
The effect of (2RS,3RS)-3-amino-2-hydroxy-4-hydroxyphenylbutanoyl-(S)-leucine on humoral antibody formation to Sheep Red Blood Cell (SRBC) in mice was studied as follows.
Mice (dd/y female) were immunized by intravenous injection of 10^8 SRBC. Intraperitoneal injection of (2RS,3RS)-3-amino-2-hydroxy-4-hydroxyphenylbutanoyl-(S)-leucine was made soon afterwards.
Four days thereafter the number of plaque forming cells in the spleen were enumerated by JERNE's hemolytic plaque technique [Jerne, N. K.; A. A. Nordin & C. Henry: "The Agar Plaque Technique for Recognizing Antibody-producing Cells" in cell-bound antibodies (Wistar Institute Press, Philadelphia, 1963), pp. 109-122].

Data set [2] is described as follows: Contraceptive property: antifertility of Bestatin. It is filed as in vivo, ICR JCL female mice. As to the method:
(C) Contraceptive property:
Antifertility of Bestatin:
Immediately after subcutaneously administering Bestatin (10 mg./kg.) to ICR JCL female mice at the age of puberty, these mice were placed with male mice of similar line. Female mice which had copulated were killed two days after formulation of vaginal plug and the ova were collected from their uterine tubes so as to examine whether they had been fertilized or not. The fertilized ova were at 8-16 cell period.

Data set [3] is described as follows: Organ distribution of Bleomycin B2 in the presence of Bestatin. It is filed as in vivo, ICR male mice. The following applies: 1 hour, average of 3. As to the method: (B) Organ distribution of Bleomycin in the presence of Bestatin:
100 mg./kg. of Bleomycin B2 was subcutaneously administered to each of three ICR male mice (4 weeks of age) and 100 mg./kg. of Bleomycin B2 and 100 mg./kg. of Bestatin were subcutaneously administered simultaneously to each of three similar mice. These 6 mice were killed one hour after administration and the quantity of Bleomycin B2 remaining in the serum and organs was determined by a thin layer disc method employing Bacillus subtilis PCI219 as the test microorganism. The results are as listed in Table 2, wherein the numerals show average values in mcg./ml.

Where [4] appears, read: BLM 100 mg/kg + BST (Bestatin) 100 mg/kg s.c. simultaneously.

≈ marks a conversion by molar mass, not a printed value.

Compound `CC(C)C[C@H](NC(=O)[C@@H](O)[C@H](N)Cc1ccccc1)C(=O)O` [No. 1, [(2S,3R)-3-amino-2-hydroxy-4-phenylbutanoyl]-L-leucine] had an ID50 on aminopeptidase B (Biological Testing table after Example 29) of 0.10 mg/L (≈ 0.324 µM). The ID50 on aminopeptidase B (pH 7.0, 37° C., 30 minutes, Table 1) stood at 0.10 mg/L (≈ 0.324 µM). Also, in data set [1] (10 mcg., in words), the “number of antibody forming cells compared with non-treated group” value is reported as “nearly equal to that of non-treated group”. In addition, in data set [1] (dose 1 mg.), the “Antibody Forming Cells Number” value is 190,000±7,100 and the “Antibody Forming Cells Treated Group / Non-treated Group” value came out at 1.52. For the same compound, in data set [1] (dose 10 mcg.), the “Antibody Forming Cells Number” value is on record as 136,250±6,500 and the “Antibody Forming Cells Treated Group / Non-treated Group” value was determined as 1.09. The antifertility result in data set [2] (10 mg./kg. s.c.) is “has an antifertility property”. Moreover, in data set [2] (10 mg./kg. s.c., Female No. 1), the “Fertilized ovum (number)” value worked out at 4, the “Fertilized ovum (percent)” value turned out to be 40%, the “Non-fertilized ovum (number)” value stood at 6 and the “Non-fertilized ovum (percent)” value turned out to be 60%. Besides, in data set [2] (10 mg./kg. s.c., Female No. 1), the “Number of collected ovum” value worked out at 10 and the “Number of corpus luteum” value worked out at 10. Moreover, in data set [2] (10 mg./kg. s.c., Female No. 2), the “Fertilized ovum (number)” value was 6, the “Fertilized ovum (percent)” value is on record as 31.6%, the “Non-fertilized ovum (number)” value stood at 13 and the “Non-fertilized ovum (percent)” value is reported as 68.4%. In data set [2] (10 mg./kg. s.c., Female No. 2), the “Number of collected ovum” value stood at 19 and the “Number of corpus luteum” value amounted to 19. Also, in data set [2] (10 mg./kg. s.c., Total N=2), the “Fertilized ovum (number)” value is recorded as 10, the “Fertilized ovum (percent)” value turned out to be 34.5%, the “Non-fertilized ovum (number)” value came to 19 and the “Non-fertilized ovum (percent)” value stood at 65.5%. For the same compound, in data set [2] (10 mg./kg. s.c., Total N=2), the “Number of collected ovum” value came out at 29 and the “Number of corpus luteum” value turned out to be 29. Besides, the “fertility of the ova collected” value in data set [2] (copulated 4-16 hours after administration, control 70%) was 34.5%.

With Bleomycin B2 [BLM], in data set [3] (setting [4]), the “Bleomycin B2 remaining in Brain” value was found to be 2.4 µg/mL, the “Bleomycin B2 remaining in Kidney” value turned out to be 84.0 µg/mL, the “Bleomycin B2 remaining in Liver” value amounted to 0 µg/mL and the “Bleomycin B2 remaining in Lung” value is 21.2 µg/mL. In data set [3] (setting [4]), the “Bleomycin B2 remaining in Serum” value is 140 µg/mL, the “Bleomycin B2 remaining in Skin” value came to 42.0 µg/mL, the “Bleomycin B2 remaining in Spleen” value worked out at 5.8 µg/mL and the “Bleomycin B2 remaining in Stomach” value amounted to 2.5 µg/mL. In addition, in data set [3] (BLM 100 mg/kg s.c. alone), the “Bleomycin B2 remaining in Brain” value was found to be 0 µg/mL, the “Bleomycin B2 remaining in Kidney” value worked out at 68.0 µg/mL, the “Bleomycin B2 remaining in Liver” value is 0 µg/mL and the “Bleomycin B2 remaining in Lung” value was found to be 11.2 µg/mL. Besides, in data set [3] (BLM 100 mg/kg s.c. alone), the “Bleomycin B2 remaining in Serum” value amounted to 110 µg/mL, the “Bleomycin B2 remaining in Skin” value was determined as 4.5 µg/mL, the “Bleomycin B2 remaining in Spleen” value was found to be 4.0 µg/mL and the “Bleomycin B2 remaining in Stomach” value turned out to be 1.6 µg/mL.

The values are drawn from patent US4189604A, “Bestatin” (Zaidan Hojin Biseibutsu Kagaku Kenkyu Kai, priority 1975, dated 1980).
